# Publication PMC3353862
# pIC50: −log10 of the molar value.
# Assays:
# [1] = tested on: S. aureus; assay: Broth microdilution MIC testing; format: cell-based, Staphylococcus aureus; conditions: for MIC: Staphylococcus aureus, read-out: MIC S. aureus
# [2] = tested on: bacterial protein synthesis (aminoacylation/translation system); assay: aminoacylation/translation (A/T) assay; format: biochemical; conditions: A/T assay, Table 1; read-out: IC50
# [3] = tested on: E. coli tolC mutants; assay: Broth microdilution MIC testing; format: cell-based, Escherichia coli; conditions: for MIC: Escherichia coli, read-out: MIC E. coli tolC; for MIC E. coli tolC: E. coli tolC mutants
# [4] = tested on: E. coli modified with PMBN; assay: Broth microdilution MIC testing; format: cell-based, Escherichia coli; conditions: for MIC: Escherichia coli, read-out: MIC E. coli +PMBP; for MIC E. coli +PMBP: E. coli modified with PMBN
# [5] = tested on: E. faecalis; assay: Broth microdilution MIC testing; format: cell-based, Enterococcus faecalis; conditions: for MIC: Enterococcus faecalis, read-out: MIC E. fae; for MIC E. fae: E. faecalis
# [6] = tested on: M. catarrhalis; assay: Broth microdilution MIC testing; format: cell-based, Moraxella catarrhalis; conditions: for MIC: Moraxella catarrhalis
# [7] = tested on: S. pneumoniae; assay: Broth microdilution MIC testing; format: cell-based, Streptococcus pneumoniae; conditions: for MIC: Streptococcus pneumoniae, read-out: MIC S. pneumo; for MIC S. pneumo: S. pneumoniae
# [8] = tested on: H. influenzae; assay: Broth microdilution MIC testing; format: cell-based, Haemophilus influenzae; conditions: for MIC: Haemophilus influenzae, read-out: MIC H. flu; for MIC H. flu: H. influenzae
SMILES,MIC [1],pIC50 [2],MIC [3],MIC [4],MIC [5],MIC [6],MIC [7],MIC [8],MIC S. aureus [1],MIC E. coli +PMBP [4],MIC E. fae [5],MIC M. cat [6],MIC E. coli tolC [3],MIC S. pneumo [7],MIC H. flu [8]
Oc1nc(-c2cccnc2)nc2c1CN(Cc1cccc(F)c1)CC2 [Compound 321376],> 128 µg/mL,< 3.52,> 128 µg/mL,,,,,,,,,,,,
Oc1nc(-c2ccncc2)nc2c1CN(Cc1cccc(F)c1)CC2 [Compound 321386],> 128 µg/mL,< 3.52,> 128 µg/mL,> 128 µg/mL,> 128 µg/mL,> 128 µg/mL,> 128 µg/mL,> 128 µg/mL,,,,,,,
COc1cccc(CN2CCc3nc(-c4ccncc4)nc(O)c3C2)c1 [Compound 321388],> 128 µg/mL,< 3.52,> 128 µg/mL,> 128 µg/mL,> 128 µg/mL,> 128 µg/mL,> 128 µg/mL,> 128 µg/mL,,,,,,,
Oc1nc(-c2ccccn2)nc2c1CN(Cc1ccc(F)cc1)CC2 [Compound 321521],128 µg/mL,5.62,16 µg/mL,64 µg/mL,16 µg/mL,0.5 µg/mL,16 µg/mL,4 µg/mL,,,,,,,
Oc1ccccc1CN1CCc2nc(-c3ccccn3)nc(O)c2C1 [Compound 321522],128 µg/mL,5.59,32 µg/mL,64 µg/mL,16 µg/mL,1 µg/mL,16 µg/mL,2 µg/mL,,,,,,,
Oc1nc(-c2ccccn2)nc2c1CN(Cc1ccccc1)CC2 [Compound 321524],128 µg/mL,5.70,16 µg/mL,64 µg/mL,16 µg/mL,1 µg/mL,16 µg/mL,4 µg/mL,,,,,,,
COc1ccccc1CN1CCc2nc(-c3ccccn3)nc(O)c2C1 [Compound 321527],> 128 µg/mL,5.74,64 µg/mL,> 128 µg/mL,64 µg/mL,2 µg/mL,32 µg/mL,16 µg/mL,,,,,,,
COc1ccc(CN2CCc3nc(-c4ccccn4)nc(O)c3C2)cc1 [Compound 321529],> 128 µg/mL,5.59,32 µg/mL,128 µg/mL,128 µg/mL,2 µg/mL,32 µg/mL,8 µg/mL,,,,,,,
COc1ccc(OC)c(CN2CCc3nc(-c4ccccn4)[nH]c(=O)c3C2)c1 [Compound 323191],,< 3.52,,,,,,,> 128 µg/mL,64 µg/mL,128 µg/mL,4 µg/mL,128 µg/mL,32 µg/mL,32 µg/mL
O=c1[nH]c(-c2ccccn2)nc2c1CN(Cc1ccccc1OCc1ccccn1)CC2 [Compound 323192],,< 3.52,,,,,,,> 128 µg/mL,64 µg/mL,128 µg/mL,4 µg/mL,128 µg/mL,32 µg/mL,64 µg/mL
C=CCOc1ccccc1CN1CCc2nc(-c3ccccn3)[nH]c(=O)c2C1 [Compound 323194],,5.47,,,,,,,64 µg/mL,16 µg/mL,64 µg/mL,1 µg/mL,16 µg/mL,8 µg/mL,8 µg/mL
O=c1[nH]c(-c2ccccn2)nc2c1CN(Cc1ccccc1N1CCCC1)CC2 [Compound 323195],,5.82,,,,,,,64 µg/mL,16 µg/mL,64 µg/mL,2 µg/mL,32 µg/mL,32 µg/mL,16 µg/mL
O=c1[nH]c(-c2ccccn2)nc2c1CN(Cc1cccc(O)c1O)CC2 [Compound 323196],,5.80,,,,,,,> 128 µg/mL,> 128 µg/mL,32 µg/mL,128 µg/mL,> 128 µg/mL,> 128 µg/mL,> 128 µg/mL
COc1cccc(CN2CCc3nc(-c4ccccn4)[nH]c(=O)c3C2)c1O [Compound 323197],,5.36,,,,,,,> 128 µg/mL,> 128 µg/mL,> 128 µg/mL,16 µg/mL,> 128 µg/mL,128 µg/mL,32 µg/mL
O=c1[nH]c(-c2ccccn2)nc2c1CN(Cc1c(F)cccc1F)CC2 [Compound 323198],,5.57,,,,,,,> 128 µg/mL,64 µg/mL,> 128 µg/mL,1 µg/mL,32 µg/mL,16 µg/mL,8 µg/mL
CCOc1cc2c(cc1CN1CCc3nc(-c4ccccn4)[nH]c(=O)c3C1)OCO2 [Compound 323199],,5.96,,,,,,,128 µg/mL,32 µg/mL,128 µg/mL,1 µg/mL,32 µg/mL,16 µg/mL,16 µg/mL
COc1ccc(CN2CCc3nc(-c4ccccn4)[nH]c(=O)c3C2)c(C)c1C [Compound 323202],,5.37,,,,,,,16 µg/mL,32 µg/mL,32 µg/mL,0.25 µg/mL,8 µg/mL,4 µg/mL,4 µg/mL
COc1cc(Cl)cc(CN2CCc3nc(-c4ccccn4)[nH]c(=O)c3C2)c1OC [Compound 323203],,5.70,,,,,,,16 µg/mL,16 µg/mL,64 µg/mL,1 µg/mL,8 µg/mL,4 µg/mL,8 µg/mL
Cc1cc(CN2CCc3nc(-c4ccccn4)[nH]c(=O)c3C2)cc(C)c1O [Compound 323204],,5.68,,,,,,,> 128 µg/mL,> 128 µg/mL,> 128 µg/mL,64 µg/mL,> 128 µg/mL,128 µg/mL,32 µg/mL
COc1cc(CN2CCc3nc(-c4ccccn4)[nH]c(=O)c3C2)cc2c1OCO2 [Compound 323205],,< 3.52,,,,,,,> 128 µg/mL,64 µg/mL,128 µg/mL,4 µg/mL,64 µg/mL,32 µg/mL,16 µg/mL
CN(C)Cc1cc(CN2CCc3nc(-c4ccccn4)[nH]c(=O)c3C2)ccc1O [Compound 323206],,< 3.52,,,,,,,> 128 µg/mL,> 128 µg/mL,> 128 µg/mL,> 128 µg/mL,> 128 µg/mL,> 128 µg/mL,> 128 µg/mL
Cc1cc2c(cc1CN1CCc3nc(-c4ccccn4)[nH]c(=O)c3C1)OCO2 [Compound 323207],,< 3.52,,,,,,,> 128 µg/mL,> 128 µg/mL,> 128 µg/mL,> 128 µg/mL,> 128 µg/mL,> 128 µg/mL,> 128 µg/mL
